Experimental data as given in PubChem BioAssay (NCI).
Several values for one entry are separate records, joined by “and”; a condition that tells them apart may be missing. Identical values can stand only once.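 In this assay, cells in 96-well plates receive the compound at five concentrations for 48 hours. Endpoints are linearly interpolated between the surrounding concentrations. At the GI50, growth is halved. The concentration for full growth arrest is given as TGI.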

Experiments:
Test in all cases: inhibition of tumour cell growth, NCI panel, 48 h
SK-OV-3 ovarian = test system: SK-OV-3 ovarian
HT29 colon = test system: HT29 colon
SNB-75 CNS = test system: SNB-75 CNS
EKVX NSCLC = test system: EKVX NSCLC
OVCAR-3 ovarian = test system: OVCAR-3 ovarian
CAKI-1 renal = test system: CAKI-1 renal
786-0 renal = test system: 786-0 renal
SN12C renal = test system: SN12C renal
BT-549 breast = test system: BT-549 breast
HCT-116 colon = test system: HCT-116 colon
SK-MEL-2 melanoma = test system: SK-MEL-2 melanoma
PC-3 prostate = test system: PC-3 prostate
NCI-H460 lung = test system: NCI-H460 lung
UACC-62 melanoma = test system: UACC-62 melanoma
OVCAR-8 ovarian = test system: OVCAR-8 ovarian
KM12 colon = test system: KM12 colon
HOP-92 NSCLC = test system: HOP-92 NSCLC
MDA-MB-231 breast = test system: MDA-MB-231 breast
M14 melanoma = test system: M14 melanoma
UO-31 renal = test system: UO-31 renal
NCI-H23 lung = test system: NCI-H23 lung
SNB-19 CNS = test system: SNB-19 CNS
MALME-3M melanoma = test system: MALME-3M melanoma
U251 CNS = test system: U251 CNS
DU-145 prostate = test system: DU-145 prostate
T-47D breast = test system: T-47D breast
SK-MEL-5 melanoma = test system: SK-MEL-5 melanoma
A549 NSCLC = test system: A549 NSCLC
A498 renal = test system: A498 renal
NCI-H226 lung = test system: NCI-H226 lung
SF-295 CNS = test system: SF-295 CNS
UACC-257 melanoma = test system: UACC-257 melanoma
HL-60(TB) leukemia = test system: HL-60(TB) leukemia
SW-620 colon = test system: SW-620 colon
IGROV1 ovarian = test system: IGROV1 ovarian
MCF7 breast = test system: MCF7 breast
RPMI-8226 leukemia = test system: RPMI-8226 leukemia
NCI-H522 lung = test system: NCI-H522 lung
HCT-15 colon = test system: HCT-15 colon
MDA-MB-435 = test system: MDA-MB-435
COLO 205 colon = test system: COLO 205 colon
SK-MEL-28 melanoma = test system: SK-MEL-28 melanoma
HOP-62 NSCLC = test system: HOP-62 NSCLC
K-562 leukemia = test system: K-562 leukemia
HS 578T breast = test system: HS 578T breast
MOLT-4 leukemia = test system: MOLT-4 leukemia
NCI/ADR-RES ovarian = test system: NCI/ADR-RES ovarian
RXF 393 renal = test system: RXF 393 renal
SF-268 CNS = test system: SF-268 CNS
OVCAR-5 ovarian = test system: OVCAR-5 ovarian
SR leukemia = test system: SR leukemia
CCRF-CEM leukemia = test system: CCRF-CEM leukemia
HCC-2998 colon = test system: HCC-2998 colon
MDA-N = test system: MDA-N
OVCAR-4 ovarian = test system: OVCAR-4 ovarian
LOX IMVI melanoma = test system: LOX IMVI melanoma
TK-10 renal = test system: TK-10 renal
SF-539 CNS = test system: SF-539 CNS
ACHN renal = test system: ACHN renal

## CC1OC(OC2C(OC(=O)[C@]34CCC(C)(C)C[C@H]3C3=CC[C@@H]5[C@@]6(C)CC[C@H](OC7OC(C(=O)O)C(O)C(O)C7O)C(C)(C)[C@@H]6CC[C@@]5(C)[C@]3(C)CC4)OCC(O)C2O)C(O)C(O)C1OC1OCC(O)C(O)C1O (some centres not stated)
SK-OV-3 ovarian
  TGI: > 100 µM
HT29 colon
  TGI: > 100 µM and 30.1 µM
SNB-75 CNS
  GI50: 80.6 µM and 24.7 µM
  TGI: > 100 µM and 76.8 µM
EKVX NSCLC
  TGI: 79.3 µM and 48.4 µM
OVCAR-3 ovarian
  TGI: > 100 µM
CAKI-1 renal
  TGI: > 100 µM
786-0 renal
  TGI: > 100 µM
SN12C renal
  TGI: 50.5 µM and 40.5 µM
BT-549 breast
  GI50: 40 µM and 18.4 µM
  TGI: > 100 µM and 37.3 µM
HCT-116 colon
  TGI: > 100 µM
SK-MEL-2 melanoma
  TGI: > 100 µM and 63.7 µM
PC-3 prostate
  GI50: 66.9 µM and 25.2 µM
  TGI: > 100 µM and 74.7 µM
NCI-H460 lung
  TGI: > 100 µM
UACC-62 melanoma
  TGI: 86.5 µM and > 100 µM
OVCAR-8 ovarian
  TGI: > 100 µM
KM12 colon
  GI50: 37.9 µM and 17.1 µM
  TGI: > 100 µM and 34 µM
HOP-92 NSCLC
  TGI: 99.8 µM and 43.7 µM
MDA-MB-231 breast
  TGI: 60.4 µM and 35.4 µM
M14 melanoma
  TGI: 56 µM and 35.6 µM
UO-31 renal
  TGI: 39.1 µM and 34.8 µM
NCI-H23 lung
  TGI: 42.5 µM and 38.3 µM
SNB-19 CNS
  GI50: > 100 µM and 47.5 µM
  TGI: > 100 µM
MALME-3M melanoma
  TGI: > 100 µM
U251 CNS
  TGI: > 100 µM
DU-145 prostate
  GI50: > 100 µM and 45.9 µM
  TGI: > 100 µM
T-47D breast
  TGI: > 100 µM
SK-MEL-5 melanoma
  GI50: > 100 µM and 28.3 µM
  TGI: > 100 µM
A549 NSCLC
  TGI: > 100 µM
A498 renal
  TGI: 33.2 µM and 35.7 µM
NCI-H226 lung
  TGI: > 100 µM
SF-295 CNS
  GI50: 53.5 µM and 24 µM
  TGI: > 100 µM and 58.6 µM
UACC-257 melanoma
  TGI: 93.1 µM and > 100 µM
HL-60(TB) leukemia
  TGI: 73.5 µM and 45.8 µM
SW-620 colon
  GI50: 98 µM and 45.1 µM
  TGI: > 100 µM
IGROV1 ovarian
  TGI: > 100 µM
MCF7 breast
  TGI: > 100 µM
RPMI-8226 leukemia
  GI50: 54.5 µM and 25.6 µM
  TGI: > 100 µM and 71.5 µM
NCI-H522 lung
  TGI: > 100 µM
HCT-15 colon
  TGI: > 100 µM
MDA-MB-435
  TGI: 34.8 µM
COLO 205 colon
  TGI: 31.2 µM and 30.6 µM
SK-MEL-28 melanoma
  TGI: 34.4 µM and 58.9 µM
HOP-62 NSCLC
  GI50: > 100 µM and 25.5 µM
  TGI: > 100 µM and 55.6 µM
K-562 leukemia
  GI50: 58.7 µM and 28 µM
  TGI: > 100 µM and 76.9 µM
HS 578T breast
  GI50: > 100 µM and 45.5 µM
  TGI: > 100 µM
MOLT-4 leukemia
  GI50: > 100 µM and 36.9 µM
  TGI: > 100 µM
NCI/ADR-RES ovarian
  TGI: > 100 µM
RXF 393 renal
  TGI: > 100 µM
SF-268 CNS
  TGI: > 100 µM
OVCAR-5 ovarian
  TGI: > 100 µM
SR leukemia
  GI50: 46.2 µM and 22.5 µM
  TGI: > 100 µM and 77.1 µM
CCRF-CEM leukemia
  TGI: > 100 µM
HCC-2998 colon
  TGI: 33.6 µM and 34 µM
MDA-N
  TGI: 37.8 µM and 36.2 µM
OVCAR-4 ovarian
  TGI: > 100 µM
LOX IMVI melanoma
  TGI: > 100 µM

## O=C1CC2[C@@H](N3CCCC3)CCC(N1Cc1ccccc1)C2(O)O (some centres not stated)
SK-OV-3 ovarian
  TGI: > 100 µM
HT29 colon
  TGI: > 100 µM
EKVX NSCLC
  TGI: > 100 µM
OVCAR-3 ovarian
  TGI: > 100 µM
CAKI-1 renal
  TGI: > 100 µM
786-0 renal
  TGI: > 100 µM
SN12C renal
  TGI: > 100 µM
BT-549 breast
  TGI: > 100 µM
HCT-116 colon
  TGI: > 100 µM
PC-3 prostate
  TGI: > 100 µM
NCI-H460 lung
  TGI: > 100 µM
UACC-62 melanoma
  TGI: > 100 µM
OVCAR-8 ovarian
  TGI: > 100 µM
KM12 colon
  TGI: > 100 µM
TK-10 renal
  TGI: > 100 µM
HOP-92 NSCLC
  TGI: > 100 µM
MDA-MB-231 breast
  TGI: > 100 µM
M14 melanoma
  TGI: > 100 µM
UO-31 renal
  TGI: > 100 µM
NCI-H23 lung
  TGI: > 100 µM
SNB-19 CNS
  TGI: > 100 µM
MALME-3M melanoma
  TGI: > 100 µM
U251 CNS
  TGI: > 100 µM
DU-145 prostate
  TGI: > 100 µM
T-47D breast
  TGI: > 100 µM
SK-MEL-5 melanoma
  TGI: > 100 µM
A549 NSCLC
  TGI: > 100 µM
A498 renal
  TGI: > 100 µM
NCI-H226 lung
  TGI: > 100 µM
SF-295 CNS
  TGI: > 100 µM
SF-539 CNS
  TGI: > 100 µM
UACC-257 melanoma
  TGI: > 100 µM
HL-60(TB) leukemia
  TGI: > 100 µM
ACHN renal
  TGI: > 100 µM
SW-620 colon
  TGI: > 100 µM
IGROV1 ovarian
  TGI: > 100 µM
MCF7 breast
  TGI: > 100 µM
NCI-H522 lung
  TGI: > 100 µM
HCT-15 colon
  TGI: > 100 µM
MDA-MB-435
  TGI: > 100 µM
COLO 205 colon
  TGI: > 100 µM
SK-MEL-28 melanoma
  TGI: > 100 µM
HOP-62 NSCLC
  TGI: > 100 µM
K-562 leukemia
  TGI: > 100 µM
HS 578T breast
  TGI: > 100 µM
MOLT-4 leukemia
  TGI: > 100 µM
NCI/ADR-RES ovarian
  TGI: > 100 µM
RXF 393 renal
  TGI: > 100 µM
SF-268 CNS
  TGI: > 100 µM
OVCAR-5 ovarian
  TGI: > 100 µM
SR leukemia
  TGI: > 100 µM
CCRF-CEM leukemia
  TGI: > 100 µM
HCC-2998 colon
  TGI: > 100 µM
MDA-N
  TGI: > 100 µM
LOX IMVI melanoma
  TGI: > 100 µM

## COc1ccc(C)c2c1N[C@](C)([C@]1(C)Nc3c(OC)ccc(C)c3C1=O)C2=O
SK-OV-3 ovarian
  TGI: > 100 µM
HT29 colon
  TGI: > 100 µM
EKVX NSCLC
  TGI: > 100 µM
OVCAR-3 ovarian
  TGI: > 100 µM
CAKI-1 renal
  TGI: > 100 µM
786-0 renal
  TGI: > 100 µM
SN12C renal
  TGI: > 100 µM
BT-549 breast
  TGI: > 100 µM
HCT-116 colon
  TGI: > 100 µM
SK-MEL-2 melanoma
  TGI: > 100 µM
PC-3 prostate
  TGI: > 100 µM
NCI-H460 lung
  TGI: > 100 µM
UACC-62 melanoma
  TGI: > 100 µM
OVCAR-8 ovarian
  TGI: > 100 µM
KM12 colon
  TGI: > 100 µM
HOP-92 NSCLC
  TGI: > 100 µM
MDA-MB-231 breast
  TGI: > 100 µM
M14 melanoma
  TGI: > 100 µM
UO-31 renal
  TGI: > 100 µM
NCI-H23 lung
  TGI: > 100 µM
SNB-19 CNS
  TGI: > 100 µM
MALME-3M melanoma
  TGI: > 100 µM
U251 CNS
  TGI: > 100 µM
DU-145 prostate
  TGI: > 100 µM
T-47D breast
  TGI: > 100 µM
SK-MEL-5 melanoma
  TGI: > 100 µM
A549 NSCLC
  TGI: > 100 µM
A498 renal
  TGI: > 100 µM
NCI-H226 lung
  TGI: > 100 µM
SF-295 CNS
  TGI: > 100 µM
SF-539 CNS
  TGI: > 100 µM
UACC-257 melanoma
  TGI: > 100 µM
ACHN renal
  TGI: > 100 µM
SW-620 colon
  TGI: > 100 µM
IGROV1 ovarian
  TGI: > 100 µM
MCF7 breast
  TGI: > 100 µM
RPMI-8226 leukemia
  TGI: > 100 µM
NCI-H522 lung
  TGI: > 100 µM
HCT-15 colon
  TGI: > 100 µM
MDA-MB-435
  TGI: > 100 µM
COLO 205 colon
  TGI: > 100 µM
SK-MEL-28 melanoma
  TGI: > 100 µM
HOP-62 NSCLC
  TGI: > 100 µM
K-562 leukemia
  TGI: > 100 µM
HS 578T breast
  TGI: > 100 µM
MOLT-4 leukemia
  TGI: > 100 µM
NCI/ADR-RES ovarian
  TGI: > 100 µM
RXF 393 renal
  TGI: > 100 µM
SF-268 CNS
  TGI: > 100 µM
OVCAR-5 ovarian
  TGI: > 100 µM
SR leukemia
  TGI: > 100 µM
CCRF-CEM leukemia
  TGI: > 100 µM
HCC-2998 colon
  TGI: > 100 µM
MDA-N
  TGI: > 100 µM
OVCAR-4 ovarian
  TGI: > 100 µM
LOX IMVI melanoma
  TGI: > 100 µM
